According to patent publication US5232913A, “Antihepatopathic composition” (Senju Pharmaceutical Co., Ltd., priority 1990, dated 1993):
Read-outs that look alike come from different tables or passages of the source.

Test system: acetaminophen-induced hepatic impairment
Experiment: Effect on acetaminophen-induced hepatic impairment
Format: in vivo, rat
Details: Male SD rats; for s-GOT % inhibition / s-GPT % inhibition / inhibitory effect on acetaminophen-induced hepatic impairment (antihepatopathic effect, in words) / inhibition at 500 µmol/kg: 0.5 mmole/kg orally; for s-GOT % inhibition / s-GPT % inhibition / inhibition at 500 µmol/kg: one hour before acetaminophen 300 mg/kg i.p., versus physiological saline control; for s-GOT % inhibition / s-GPT % inhibition / s-GOT / s-GPT / inhibition at 500 µmol/kg: serum after 24 hours; for inhibitory effect on acetaminophen-induced hepatic impairment (antihepatopathic effect, in words): acetaminophen 300 mg/kg i.p.; for s-GOT / s-GPT: test substance 0.5 mmole/kg orally, one hour later acetaminophen 300 mg/kg i.p., mean ± S.E., n = 7-10; for inhibition at 500 µmol/kg: Rattus norvegicus
Protocol: Method; Male SD rats (body weights ca. 180 g) purchased form Japan SLC were used. The test substance was orally administered (0.5 mmole/kg) and one hour later 300 mg/kg of acetaminophen was intraperitoneally administered. After 24 hours, blood was drawn from the abdominal aorta and the serum was separated. Using this serum, s-GOT and GPT were determined.

With `CCOC(=O)C(C)CSCC(NC(=O)CCC(N)C(=O)O)C(=O)NCC(=O)OC(C)C` (stereo not drawn) [compound 7, S-(2-Methyl-2-carbethoxyethyl)glutathione isopropyl ester] the s-GOT % inhibition was 70.2%, the s-GPT % inhibition was 74.3% and the “inhibitory effect on acetaminophen-induced hepatic impairment (antihepatopathic effect, in words)” value (from here on “inhibitory effect”) was “significant antihepatopathic effects”. The s-GOT was 1570 ± 511 IU/l and the s-GPT was 529 ± 168 IU/l.
In the case of `CC(C)OC(=O)CC(C)SC[C@H](NC(=O)CC[C@H](N)C(=O)O)C(=O)NCC(=O)O` (stereo partly drawn) [compound 9, S-(1-Methyl-2-carboisopropoxyethyl)glutathione], the “inhibitory effect” value is reported as “significant antihepatopathic effects”, the s-GOT is reported as 171 ± 71 IU/l and the s-GPT is reported as 43 ± 21 IU/l. The inhibition at 500 µmol/kg (read-out: s-GOT % inhibition) was 96.8% and the inhibition at 500 µmol/kg (read-out: s-GPT % inhibition) was 97.9%.
Work on `CC(CSC[C@H](NC(=O)CC[C@H](N)C(=O)O)C(=O)NCC(=O)O)C(=O)OCc1ccccc1` (stereo partly drawn) [compound 6, S-[2-Methyl-2-carbobenzoxyethyl]glutathione] yielded a s-GOT of 2968 ± 824 IU/l, a s-GPT of 1384 ± 421 IU/l and an inhibition at 500 µmol/kg (read-out: s-GOT % inhibition) of 43.7%. It also gave an inhibition at 500 µmol/kg (read-out: s-GPT % inhibition) of 32.8%.
With `CC(C)COC(=O)C(C)CSCC(NC(=O)CCC(N)C(=O)O)C(=O)NCC(=O)OC(C)C` (stereo not drawn) [compound 8, S-(2-Methyl-2-carbiosobutoxyethyl)glutathione isopropyl ester] the s-GOT % inhibition was 96.9%, the s-GPT % inhibition was 97.5% and the “inhibitory effect” value was “significant antihepatopathic effects”. For the same compound, the s-GOT was 163 ± 89 IU/l and the s-GPT was 52 ± 29 IU/l.
With `CCOC(=O)CCSC[C@H](NC(=O)CC[C@H](N)C(=O)O)C(=O)NCC(=O)O` [compound 4, S-(2-Carbethoxyethyl)glutathione] the “inhibitory effect” value was “significant antihepatopathic effects”, the s-GOT was 1935 ± 530 IU/l and the s-GPT was 598 ± 226 IU/l. For the same compound, the inhibition at 500 µmol/kg (read-out: s-GOT % inhibition) was 63.3% and the inhibition at 500 µmol/kg (read-out: s-GPT % inhibition) was 71%.
`CC(C)COC(=O)C(C)CSC[C@H](NC(=O)CC[C@H](N)C(=O)O)C(=O)NCC(=O)O` (stereo partly drawn) [compound 5, S-(2-Methyl-2-carboisobutoxyethyl)glutathione] was tested, and the s-GOT % inhibition was 43.6%, the s-GPT % inhibition was 32.8% and the s-GOT was 2972 ± 803 IU/l. It also gave a s-GPT of 1384 ± 417 IU/l.
`CCOC(=O)C(C)CSC[C@H](NC(=O)CC[C@H](N)C(=O)O)C(=O)NCC(=O)O` (stereo partly drawn) [compound 2, S-(2-carbethoxypropyl)glutathione] was tested, and the “inhibitory effect” value was “significant antihepatopathic effects”, the s-GOT was 841 ± 354 IU/l and the s-GPT was 195 ± 81 IU/l. For the same compound, the inhibition at 500 µmol/kg (read-out: s-GOT % inhibition) was 84% and the inhibition at 500 µmol/kg (read-out: s-GPT % inhibition) was 90.5%.
For `CC(CSC[C@H](NC(=O)CC[C@H](N)C(=O)O)C(=O)NCC(=O)O)C(=O)O` (stereo partly drawn) [compound 1, S-(2-carboxypropyl)glutathione], the “inhibitory effect” value was “significant antihepatopathic effects”, the s-GOT was 1259 ± 424 IU/l and the s-GPT was 337 ± 117 IU/l. The inhibition at 500 µmol/kg (read-out: s-GOT % inhibition) was 76.1% and the inhibition at 500 µmol/kg (read-out: s-GPT % inhibition) was 83.6%.
`N[C@@H](CCC(=O)N[C@@H](CSCCC(=O)O)C(=O)NCC(=O)O)C(=O)O` [compound 3, S-(2-Carboxyethyl)glutathione] was tested, and the “inhibitory effect” value was “significant antihepatopathic effects”, the s-GOT was 1968 ± 626 IU/l and the s-GPT was 530 ± 180 IU/l. For the same compound, the inhibition at 500 µmol/kg (read-out: s-GOT % inhibition) was 62.6% and the inhibition at 500 µmol/kg (read-out: s-GPT % inhibition) was 74.3%.
